Assay results published in patent publication US7307071B2, “RAF-MEK-ERK pathway inhibitors to treat cancer” (Onyx Pharmaceuticals, Inc, priority 2001, dated 2007).

Legend:
[1] = test system: phospho-ERK in Ba/F3 cells expressing Bcr-Abl imatinib resistant mutants E255K and T315I; assay: ERK phosphorylation, Western blot with phospho-ERK antibody; assay type: cell-based, mouse; conditions: FIG. 5
Description: (§1) The experiment was conducted as follows. On day 1, 2×10^6 cells were plated in a 6 well plate in medium containing 10% serum, and on day 2 the cells were treated with the relevant compound dissolved in DMSO. The final DMSO concentration was 0.2%. Next, the cells were spun down, and washed once with 2 ml of ice-cold phosphate buffered saline, and then lysed with […] buffer. Next, 50 ul of cell lysates was electrophoresed in 10% Tris-Glycine gels, followed by treatment with a 1° antibody which was a phospho-ERK polyclonal rabbit antibody used at 1:1000 dilution. It was obtained from Cell Signaling. The 1° was followed by a 2° antibody which was goat anti-rabbit horse radish peroxidase antibody, and it was used at a dilution of 1:1000. Lastly, Westerns were developed with an ECL kit obtained from Amersham.

[2] = test system: phospho-ERK in Ba/F3 cells expressing wild type Bcr-Abl; assay: as above; assay type: cell-based, mouse; conditions: FIG. 5
Description: as §1

[3] = test system: all four cell lines: Ba/F3, P210 WT, P210 T315I, P210 E255K; assay: Cell proliferation (cell viability) by trypan blue dye exclusion; assay type: cell-based, mouse; conditions: FIG. 4, 3 experiments, read-out: IC50 for inhibition of cell proliferation
Description: Briefly, cell culture methods were as follows. […] Cell proliferation assays were performed as follows.

[4] = test system: chronic myelogenous leukemia; conditions: CML patients, remissions achieved during blast phase; cited from earlier work

In the case of `CNC(=O)c1cc(Oc2ccc(NC(=O)Nc3ccc(Cl)c(C(F)(F)F)c3)cc2)ccn1` [BAY 43-9006], the “effect on phospho-ERK levels” value [1] is reported as “decrease in phospho-ERK levels”, the “effect on phospho-ERK levels” value [2] is reported as “decrease in phospho-ERK levels” and the IC50 [3] is reported as 4 to 8 µM.

In the case of `Cc1ccc(NC(=O)c2ccc(CN3CCN(C)CC3)cc2)cc1Nc1nccc(-c2cccnc2)n1` [imatinib], the “time to relapse after remission” value [4] is given as 2-6 months.
